Results reported in US10745401B2, “Condensed lactam derivative” (Sumitomo Dainippon Pharma Co., Ltd., priority 2018, dated 2020).

Assays:
[1] = Test 4: metabolic stability test in human hepatic microsome; assay type: in vitro ADME; conditions: 0.1 mg/mL microsome, 0.1 μmol/L compound, 37° C., 30 minutes
How it was run: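 LC-MS quantified remaining parent after 30 min, 37° C, in pH 7.4 25 mmol/L phosphate containing 0.1 mg/mL human hepatic microsomes, 3.2 mmol/L NADPH and 0.1 μmol/L test compound. Value given as −LN(residual ratio)/30/0.1, mL/min/mg protein.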

human 5-HT2A receptor [2] = target: T1, human 5-HT2A receptor (Homo sapiens (Human), UniProt P28223); assay: Test 1: binding activity for human 5-HT2A receptor ([3H]Ketanserin, CHO cell membrane fraction)
Procedure: Test 1: Evaluation of Binding Activity for Human 5-HT1A Receptor, Human 5-HT2A Receptor, and Human D2 Receptor
Binding affinity of the present compound for human 5-HT1A receptor, human 5-HT2A receptor, and human D2 receptor was measured by the following procedures.
Each mixture was incubated at room temperature for 60 minutes. Then, the mixture was added quickly on a glassfiber filter plate (Multiscreen FB, Millipore, Inc.) coated with 0.3% aqueous polyethylenimine, and vacuum-filtered. Radioactivity remaining on the filter was measured with a liquid scintillation counter (PerkinElmer, Inc.). Binding inhibition rate was calculated from the following formula.
Ki of each compound was calculated from the following formula. Binding inhibition constant (Ki)=IC50/(1+S/Kd) wherein S is concentration of ligand; Kd is a binding dissociation constant of ligand to membrane, which is calculated from a saturated binding experiment conducted with the same cell membrane. A small Ki value means strong binding ability to a receptor.

hERG channel = hERG channel (Homo sapiens (Human), UniProt Q12809); assay: Test 6-1: inhibitory activity for hERG channel (auto patch clamp, Qpatch); assay type: cell-based; conditions: whole cell auto patch clamp, hERG-CHO cells; read-out: hERG inhibition IC50
How it was run: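 Whole-cell patch clamp on an automated system using CHO cells stably expressing human hERG (IKr); 15 s pulse interval. Four increasing compound concentrations applied cumulatively; mean peak tail current from last 3 stimulations per concentration used. IC50 from inhibition versus pre-compound current, fitted by Hill equation.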

human 5-HT2A receptor [3] = target: T1, human 5-HT2A receptor; assay: Test 3: antagonist activity for human 5-HT2A receptor (aequorin luminescence, CHO-K1 cells); assay type: cell-based; conditions: CHO-K1 cells, 1 nmol/L 5-HT
Procedure: Test 3: Evaluation of Antagonist Activity for Human 5-HT2A Receptor
Aequorin, Gα16 protein, and each receptor were transiently expressed in CHO-K1 cells (Chinese hamster ovary). […] Each compound dissolved in DMSO was added thereto, and changes in luminescence were measured by FDSS/μCELL functional drug screening system (Hamamatsu Photonics K.K.). Antagonist activity was calculated from the following formula. Antagonist activity (%)=100×{(Luminescence of well in the presence of 1 nmol/L 5-HT−Luminescence of well containing solvent)−(Luminescence of well in the presence of test compound and 1 nmol/L 5-HT−Luminescence of well containing solvent)}/(Luminescence of well in the presence of 1 nmol/L 5-HT−Luminescence of well containing solvent)

human 5-HT1A receptor [4] = target: T2, human 5-HT1A receptor (Homo sapiens (Human), UniProt P08908); assay: Test 1: binding activity for human 5-HT1A receptor ([3H]8-OH-DPAT, CHO cell membrane fraction)
How it was run: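 Membranes incubated with [3H]8-OH-DPAT and compound for 60 min at room temperature, then filtered on polyethylenimine-coated glass-fibre plates and counted by liquid scintillation. IC50 from Hill analysis; Ki = IC50/(1+S/Kd), Kd from saturation binding on the same membranes.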

human D2 receptor = human D2 receptor (Homo sapiens (Human), UniProt P14416); assay: Test 1: binding activity for human D2 receptor ([3H]Spiperone, CHO cell membrane fraction); conditions: human D2 receptor, [3H]Spiperone
How it was run: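 Compound displacement of [3H]ketanserin at 5-HT2A or [3H]spiperone at D2 was measured in CHO membrane fractions after 60 min at room temperature, with filtration and scintillation counting. IC50 was converted to Ki by Cheng–Prusoff using ligand concentration and Kd from saturation binding.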

human 5-HT1A receptor [5] = target: T2, human 5-HT1A receptor; assay: Test 2: agonist activity for human 5-HT1A receptor ([35S]GTPγS binding); assay type: biochemical; conditions: for EC50: [35S]GTPγS binding, concentration at which half the activity of Emax was obtained; for Emax at 10 µM: agonist activity in the presence of 10 μM of compound, relative to 100 μmol/L 5-HT
How it was run: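 [35S]GTPγS binding read-out: after 60 min at room temperature with test compound in GDP buffer, human 5-HT1A receptor CHO membranes were vacuum-filtered and retained radioactivity scintillation-counted. Agonist activity calculated by formula.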

T1 sequence (P28223 whole entry): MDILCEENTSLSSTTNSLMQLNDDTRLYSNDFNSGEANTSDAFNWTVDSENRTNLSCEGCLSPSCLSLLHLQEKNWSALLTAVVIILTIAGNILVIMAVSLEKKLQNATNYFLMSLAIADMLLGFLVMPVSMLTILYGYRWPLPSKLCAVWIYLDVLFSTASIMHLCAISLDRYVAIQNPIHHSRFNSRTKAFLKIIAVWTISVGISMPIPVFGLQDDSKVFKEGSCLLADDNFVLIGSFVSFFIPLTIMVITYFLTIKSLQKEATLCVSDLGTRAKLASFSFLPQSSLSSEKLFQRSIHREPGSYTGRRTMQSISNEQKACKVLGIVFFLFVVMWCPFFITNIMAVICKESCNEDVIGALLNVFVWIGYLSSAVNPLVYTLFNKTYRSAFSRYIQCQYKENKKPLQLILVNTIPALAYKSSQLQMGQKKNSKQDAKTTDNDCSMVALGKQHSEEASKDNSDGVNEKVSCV
hERG channel, sequence (Q12809 whole entry): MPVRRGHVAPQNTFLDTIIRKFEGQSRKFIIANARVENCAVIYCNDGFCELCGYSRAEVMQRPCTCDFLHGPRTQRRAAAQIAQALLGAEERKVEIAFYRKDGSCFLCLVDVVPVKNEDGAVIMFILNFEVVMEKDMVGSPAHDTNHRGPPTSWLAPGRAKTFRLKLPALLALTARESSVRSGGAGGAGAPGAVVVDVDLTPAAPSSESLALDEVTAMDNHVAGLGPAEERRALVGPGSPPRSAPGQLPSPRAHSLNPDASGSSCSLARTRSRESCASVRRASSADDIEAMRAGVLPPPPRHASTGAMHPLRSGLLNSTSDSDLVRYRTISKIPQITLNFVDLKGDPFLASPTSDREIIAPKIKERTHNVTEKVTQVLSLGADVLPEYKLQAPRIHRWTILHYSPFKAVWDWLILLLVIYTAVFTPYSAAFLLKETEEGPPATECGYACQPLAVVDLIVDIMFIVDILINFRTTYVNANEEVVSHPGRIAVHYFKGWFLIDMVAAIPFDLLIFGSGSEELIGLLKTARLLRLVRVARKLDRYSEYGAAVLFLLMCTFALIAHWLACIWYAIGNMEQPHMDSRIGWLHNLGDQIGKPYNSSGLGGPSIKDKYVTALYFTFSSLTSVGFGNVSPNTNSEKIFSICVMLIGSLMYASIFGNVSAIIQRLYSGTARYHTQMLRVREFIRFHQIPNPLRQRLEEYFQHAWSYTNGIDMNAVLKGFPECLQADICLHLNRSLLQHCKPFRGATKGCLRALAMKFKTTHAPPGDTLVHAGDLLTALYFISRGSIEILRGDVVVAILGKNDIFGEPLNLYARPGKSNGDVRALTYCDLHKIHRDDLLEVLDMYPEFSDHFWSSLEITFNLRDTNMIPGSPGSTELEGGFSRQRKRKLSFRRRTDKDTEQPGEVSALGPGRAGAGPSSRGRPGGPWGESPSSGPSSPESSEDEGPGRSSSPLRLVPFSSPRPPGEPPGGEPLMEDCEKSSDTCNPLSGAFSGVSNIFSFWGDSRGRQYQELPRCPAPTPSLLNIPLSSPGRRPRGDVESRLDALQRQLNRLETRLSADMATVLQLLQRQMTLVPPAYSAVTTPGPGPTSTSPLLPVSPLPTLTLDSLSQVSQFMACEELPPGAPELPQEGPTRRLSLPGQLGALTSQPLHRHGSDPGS
human D2 receptor, sequence (P14416 whole entry): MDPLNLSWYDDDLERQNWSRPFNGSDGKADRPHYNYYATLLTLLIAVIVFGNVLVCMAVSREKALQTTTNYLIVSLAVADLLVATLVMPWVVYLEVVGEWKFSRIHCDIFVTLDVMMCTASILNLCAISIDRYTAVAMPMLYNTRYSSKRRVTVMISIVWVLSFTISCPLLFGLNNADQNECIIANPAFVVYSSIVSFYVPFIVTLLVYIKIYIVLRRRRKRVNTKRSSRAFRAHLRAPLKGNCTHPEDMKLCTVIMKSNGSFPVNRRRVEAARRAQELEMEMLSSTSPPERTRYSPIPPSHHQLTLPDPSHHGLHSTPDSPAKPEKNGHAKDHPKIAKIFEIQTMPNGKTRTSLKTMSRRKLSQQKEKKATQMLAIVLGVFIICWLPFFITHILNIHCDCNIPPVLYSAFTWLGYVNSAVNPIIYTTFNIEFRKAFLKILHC
T2 sequence (P08908 whole entry): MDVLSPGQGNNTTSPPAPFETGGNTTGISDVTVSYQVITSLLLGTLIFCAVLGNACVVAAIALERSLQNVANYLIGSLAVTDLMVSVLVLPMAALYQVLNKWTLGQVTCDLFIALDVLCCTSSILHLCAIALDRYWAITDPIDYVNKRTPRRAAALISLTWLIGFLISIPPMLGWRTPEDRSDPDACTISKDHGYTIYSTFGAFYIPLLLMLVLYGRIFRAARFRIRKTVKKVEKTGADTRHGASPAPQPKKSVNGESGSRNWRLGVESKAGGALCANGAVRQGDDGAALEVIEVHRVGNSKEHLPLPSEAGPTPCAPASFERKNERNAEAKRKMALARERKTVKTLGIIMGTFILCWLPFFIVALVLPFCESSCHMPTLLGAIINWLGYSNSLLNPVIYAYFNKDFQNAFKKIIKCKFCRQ

Row | Metabolic stability in human hepatic microsome [1] | Ki (human 5-HT1A receptor [4]) | Ki (human D2 receptor) | EC50 (human 5-HT1A receptor [5]) | Emax at 10 µM (human 5-HT1A receptor [5]) | Structure (SMILES) | Ki (human 5-HT2A receptor [2]) | IC50 (hERG channel) | IC50 (human 5-HT2A receptor [3]) | IC50 (human 5-HT2A receptor [3]; aequorin luminescence)
1 |  |  |  |  |  | O=C1c2ncccc2CCN1CCN1CCN(c2noc3cc(Cl)ccc23)CC1 [Example 124] | 77 nM |  |  | 120 nM
2 |  |  |  |  |  | CCc1nc2c(o1)C(=O)N(CCN1CCC(c3noc4ccccc34)CC1)CC2 [Example 72] | 7.8 nM |  | 72 nM | 
3 |  |  |  |  |  | Cc1cc2c(cn1)C(=O)N(CCN1CC=C(c3noc4ccccc34)CC1)CC2 [Example 152] | 11.4 nM |  |  | 82.7 nM
4 | 0.050 mL/min/mg protein | 3.44 nM | 2250 nM | 53.8 nM | 39% | Cc1ccc2onc(C3CCN(CCN4CCc5cccnc5C4=O)CC3)c2c1 [Example 89] |  | 1300 nM |  | 
5 | 0.064 mL/min/mg protein | 17.4 nM | 430 nM | 191 nM | 69% | CCn1ncc2c1CCN(CCN1CCN(c3nsc4ccccc34)CC1)C2=O [Example 64] |  | 7700 nM |  | 
6 | <0.01 mL/min/mg protein | 18.6 nM | 34000 nM | 300 nM | 40% | Cn1cnc2c1CCN(CCN1CCC(c3noc4ccccc34)CC1)C2=O [Example 16] |  | > 10000 nM |  | 
7 | 0.038 mL/min/mg protein | 1.25 nM | 825 nM | 5.14 nM | 59% | Cn1cc2c(n1)C(=O)N(CCN1CCN(c3nsc4ccccc34)CC1)CC2 [Example 50] |  | 8500 nM |  | 
8 | 0.505 mL/min/mg protein | 0.1 nM | 222 nM | 1.01 nM | 62% | O=C1c2cnc(Br)cc2CCN1CCN1CCN(c2nsc3ccccc23)CC1 [Example 62] |  | 1500 nM |  | 
9 | 0.102 mL/min/mg protein | 11.3 nM | 309 nM | 43.8 nM | 64% | Cc1nc(C)c2c(=O)n(CCN3CCC(c4noc5ccccc45)CC3)ccc2n1 [Example 114, 6-{2-[4-(1,2-Benzoisoxazol-3-yl)piperidin-1-yl]ethyl}-2,4-dimethylpyrido[4,3-d]pyrimidin-5(6H)-one] |  | 2700 nM |  | 
10 | <0.05 mL/min/mg protein | 817 nM | 286 nM | 4260 nM | 14% | O=C1c2nc[nH]c2CCN1CCN1CCC(c2noc3ccccc23)CC1 [Example 191, 5-{2-[4-(1,2-Benzoisoxazol-3-yl)piperidin-1-yl]ethyl}-6,7-dihydro[1,3]imidazolo[4,5-c]pyridin-4(5H)-one] |  | 2600 nM |  | 
11 | <0.05 mL/min/mg protein | 36.6 nM | 1740 nM | 570 nM | 40% | O=c1c2ncccc2ccn1CCN1CCN(c2noc3ccccc23)CC1 [Example 117] |  | 4400 nM |  | 
12 | 0.074 mL/min/mg protein | 9.35 nM | 1010 nM | 463 nM | 49% | Cc1noc2c1C(=O)N(CCN1CCC(c3noc4ccccc34)CC1)CC2 [Example 33] |  | 600 nM |  | 
13 | <0.05 mL/min/mg protein | 35.2 nM | 1680 nM | 823 nM | 42% | Cn1ccc2c1CCN(CCN1CCN(c3noc4ccccc34)CC1)C2=O [Example 170] |  | 7400 nM |  | 
14 | 0.149 mL/min/mg protein | 9.36 nM | 826 nM | 15.1 nM | 41% | CCc1ncc2c(n1)CCN(CCN1CCN(c3nsc4ccccc34)CC1)C2=O [Example 93, 6-{2-[4-(1,2-Benzoisothiazol-3-yl)piperazin-1-yl]ethyl}-2-ethyl-7,8-dihydropyrido[4,3-d]pyrimidin-5(6H)-one] |  | 6600 nM |  | 
15 | 0.210 mL/min/mg protein | 0.08 nM | 244 nM | 7.67 nM | 64% | [2H]C([2H])([2H])Oc1cc2c(cn1)C(=O)N(CCN1CCN(c3nsc4ccccc34)CC1)CC2([2H])[2H] [Example 107, 2-{2-[4-(1,2-Benzoisothiazol-3-yl)piperazin-1-yl]ethyl}-6-[(^2H3)methyloxy] (4,4-^2H2)-3,4-dihydro-2,7-naphthyridin-1(2H)-one] |  | 1700 nM |  | 
16 | 0.046 mL/min/mg protein | 101 nM | 1070 nM | 41.1 nM | 35% | Cc1nccc2c1C(=O)N(CCN1CCN(c3noc4ccccc34)CC1)CC2 [Example 85] |  | > 10000 nM |  | 
17 | <0.05 mL/min/mg protein | 5.36 nM | 188 nM | 36.9 nM | 54% | Cc1ncc2c(n1)CCC(CCN1CCC(c3noc4ccccc34)CC1)C2=O (stereo not shown) [Example 150] |  | 1200 nM |  | 

Row | Structure (SMILES) | Metabolic stability in human hepatic microsome [1] | Ki (human 5-HT1A receptor [4]) | Ki (human D2 receptor) | EC50 (human 5-HT1A receptor [5]) | Emax at 10 µM (human 5-HT1A receptor [5]) | Ki (human 5-HT2A receptor [2]) | IC50 (hERG channel) | IC50 (human 5-HT2A receptor [3]) | IC50 (human 5-HT2A receptor [3]; aequorin luminescence)
18 | O=C1c2ncccc2CCN1CCN1CCC(c2noc3cc(F)ccc23)CC1 [Example 4] | 0.011 mL/min/mg protein |  |  |  |  | 2.4 nM | 400 nM | 9.95 nM | 
19 | O=C1c2c(Br)nn(Br)c2CCN1CCN1CCN(c2nsc3ccccc23)CC1 [Example 69] |  | 10.4 nM | 360 nM | 33.9 nM | 45% | 1 nM |  |  | 
20 | Cc1noc2ccn(CCN3CCN(c4nsc5ccccc45)CC3)c(=O)c12 [Example 53] | 0.436 mL/min/mg protein |  |  |  | 72% |  | 5800 nM | 8.03 nM | 
21 | O=C1c2ncccc2CCN1CCN1CCC(c2noc3cc(F)ccc23)CC1 [Example 125] | <0.05 mL/min/mg protein |  |  |  |  | 0.27 nM | < 300 nM |  | 7.15 nM
22 | O=c1c2cnccc2ccn1CCN1CCC(c2noc3ccccc23)CC1 [Example 13] | <0.01 mL/min/mg protein |  |  |  |  | 8.4 nM |  | 71 nM | 
23 | Cc1cc2c(cn1)C(=O)N(CCN1CCN(c3nsc4ccccc34)CC1)CC2 [Example 108, 2-{2-[4-(1,2-Benzoisothiazol-3-yl)piperazin-1-yl]ethyl}-6-methyl-3,4-dihydro-2,7-naphthyridin-1(2H)-one] | 0.119 mL/min/mg protein |  |  |  | 71% |  | 2800 nM | 7.5 nM | 
24 | O=C1c2cccnc2CCN1CCN1CCN(c2nsc3ccccc23)CC1 [Example 9] | 0.100 mL/min/mg protein |  |  |  | 43% | 2.24 nM | 2300 nM |  | 
25 | O=C1c2ncccc2CCN1CCN1CCN(c2noc3cc(F)ccc23)CC1 [Example 123] | <0.05 mL/min/mg protein | 162 nM |  | 186 nM | 71% |  | 3900 nM |  | 22.9 nM
26 | Cc1nc2c(o1)C(=O)N(CCN1CCN(c3noc4ccccc34)CC1)CC2 [Example 178] |  |  | > 10000 nM |  |  | 179 nM |  |  | 2020 nM
